Measured values: patent US20060276542A1, “Methods for treating functional bowel disorders using alpha2 subunit calcium channel modulators with smooth muscle modulators” (priority 2003, published 2006)

What was measured:
beta-adrenergic = settings: cited from earlier work
[1] = preclinical and clinical studies, cited from earlier work
[2] = system: reduction in bladder capacity following continuous infusion of dilute acetic acid; test: Dilute acetic acid irritative model, bladder capacity by cystometry; type: in vivo, rat; settings: isobologram, drug alone; for common maximal effect, return to % of saline control bladder capacity: group mean data; for common maximal effect (target value), return to % of saline control bladder capacity: individual responses
Procedure: Urethane anesthetized (1.2 g/kg) normal female rats were utilized in this study.
Animals were dosed by volume of injection=body weight in kg.
Animal Preparation: Female rats (250-300 g body weight) were anesthetized with urethane (1.2 g/kg) and a saline-filled catheter (PE-50) was inserted into the jugular vein for intravenous drug administration. […] The abdominal cavity was moistened with saline and closed by covering with a thin plastic sheet in order to maintain access to the bladder for emptying purposes. Fine silver or stainless steel wire electrodes were inserted into the external urethral sphincter (EUS) percutaneously for electromyography (EMG).
Following 30 minutes of AA infusion, 3 vehicle injections were made at 20 minute intervals to determine vehicle effects, if any.
P<0.050 was considered significant.

| Compound | potency of L-enantiomer relative to D-enantiomer (beta-adrenergic) | blood levels of gabapentin across a broad range of oral doses ([1]; oral) | absorption from the large intestine [1] | common maximal effect, return to % of saline control bladder capacity [2] | common maximal effect (target value), return to % of saline control bladder capacity [2] |
| --- | --- | --- | --- | --- | --- |
| CC(C)NC[C@H](O)COc1cccc2ccccc12 [L-enantiomer of propranolol, propranolol] | 100 times |  |  |  |  |
| CC(OC(=O)NCC1(CC(=O)O)CCCCC1)OC(=O)C(C)C (stereo not shown) [XP13512] |  | dose proportional blood levels of gabapentin | absorbed efficiently from the large intestine |  |  |
| CCN(CC)CC#CCOC(=O)C(O)(c1ccccc1)C1CCCCC1 (stereo not shown) [oxybutynin, 4-diethylaminio-2-butynyl phenylcyclohexyglycolate] |  |  |  | 43 % of saline control | 31 % of saline control |
| NCC1(CC(=O)O)CCCCC1 [gabapentin, 1-(aminomethyl)cyclohexaneacetic acid] |  |  |  | 43 % of saline control | 31 % of saline control |
